Data published in patent publication US5332731A, “Cephalosporin derivatives” (Meiji Seika Kaisha, Ltd., priority 1989, dated 1994).
≈ marks a conversion by molar mass, not a printed value.

How the values were obtained:
Test in all cases: antibacterial activity, MIC by standard serial dilution method
Assay type in all cases: cell-based
[1] = system: Enterobacter cloacae GN7471
Source text: (§1) Antibacterial activity of Compounds Nos. 1, 3, 5, 7, 9, 11, 13, 15, 17, 19, 21, 23, 25, 27, 29, 31, 33, 35 and 37 indentified hereinbefore which are the particular examples of the new cephalosporin derivative of general formula (I) according to this invention and which are in the form of the free carboxylic acid was estimated by determining the minimum inhibitory concentrations (MIC., μg/ml) of these compounds against a variety of bacteria according to a standard serial dilution method.

[2] = system: Klebsiella pneumoniae GN69
Source text: as §1

[3] = system: Citrobacter freundii GN346/16
Source text: as §1

Marganella morganii 1510 = system: Marganella morganii 1510
Source text: as §1

[4] = system: Enterobacter cloacae G-0008; conditions: G0008
Source text: as §1

Proteus vulgaris GN76 = system: Proteus vulgaris GN76
Source text: as §1

[5] = system: Enterobacter hirae ATCC8043
Source text: as §1

[6] = system: Escherichia coli NIHJ JC-2; conditions: NIHJJC2
Source text: as §1

[7] = system: Serratia marcescens No. 1
Source text: as §1

Escherichia coli 255 = system: Escherichia coli 255
Source text: as §1

[8] = system: Klebsiella pneumoniae PCI602
Source text: as §1

[9] = system: Entrobacter faecalis W-73
Source text: as §1

[10] = system: Pseudomonas aeruginosa GN10362
Source text: as §1

[11] = system: Staphylococcus epidermidis ATCC14990
Source text: as §1

[12] = system: Staphylococcus aureus 209P JC-1
Source text: as §1

[13] = system: Proteus vulgaris GN76/C-1
Source text: as §1

Escherichia coli GN206 = system: Escherichia coli GN206
Source text: as §1

Escherichia coli 255/S-1 = conditions: 255/S1
Source text: as §1

[14] = system: Escherichia coli W3630 RGN823; conditions: W3630RGN823
Source text: as §1

[15] = system: Marganella morganii 1510/S-1
Source text: as §1

[16] = system: Serratia marcescens GN10857
Source text: as §1

[17] = system: Citrobacter freundii GN346
Source text: as §1

Structure (SMILES) | MIC [1] [µg/mL] | MIC [2] [µg/mL] | MIC [3] [µg/mL] | MIC (Marganella morganii 1510) [µg/mL] | MIC [4] [µg/mL] | MIC (Proteus vulgaris GN76) [µg/mL] | MIC [5] [µg/mL] | MIC [6] [µg/mL] | MIC [7] [µg/mL] | MIC (Escherichia coli 255) [µg/mL] | MIC [8] [µg/mL] | MIC [9] [µg/mL] | MIC [10] [µg/mL] | MIC [11] [µg/mL] | MIC [12] [µg/mL] | MIC [13] [µg/mL] | MIC (Escherichia coli GN206) [µg/mL] | MIC (Escherichia coli 255/S-1) [µg/mL] | MIC [14] [µg/mL] | MIC [15] [µg/mL] | further results
CO/N=C(\C(=O)NC1C(=O)N2C(C(=O)O)=C(SCC3CCCO3)CS[C@H]12)c1csc(N)n1 (stereo partly shown) [Compound No. 1, 7-[(Z)-2-(2-aminothiazol-4-yl)-2-methoxyiminoacetamido]-3-tetrahydrofurfurylthio-3-cephem-4-carboxylic acid] | 50 (≈ 100 µM) | 0.39 (≈ 0.781 µM) | 3.13 (≈ 6.27 µM) | 50 (≈ 100 µM) | 1.56 (≈ 3.12 µM) | 0.2 (≈ 0.4 µM) | 12.5 (≈ 25 µM) | 1.56 (≈ 3.12 µM) | 0.78 (≈ 1.56 µM) | 25 (≈ 50 µM) | 0.78 (≈ 1.56 µM) | 100 (≈ 200 µM) | > 100 | 0.78 (≈ 1.56 µM) | 0.2 (≈ 0.4 µM) | 3.13 (≈ 6.27 µM) | 6.25 (≈ 12.5 µM) | 0.78 (≈ 1.56 µM) | 1.56 (≈ 3.12 µM) | 0.39 (≈ 0.781 µM) | MIC [16]: 100 µg/mL (≈ 200 µM); MIC [17]: > 100 µg/mL
CO/N=C(\C(=O)NC1C(=O)N2C(C(=O)O)=C(SC3CCOC3)CS[C@H]12)c1csc(N)n1 (stereo partly shown) [Compound No. 3, 7-[(Z)-2-(2-aminothiazol-4-yl)-2-methoxyiminoacetamido]-3-(tetrahydrofuran-3-yl)thio-3-cephem-4-carboxylic acid] | 50 (≈ 103 µM) | 0.2 (≈ 0.412 µM) | 3.13 (≈ 6.45 µM) | 25 (≈ 51.5 µM) | 12.5 (≈ 25.7 µM) | 0.1 (≈ 0.206 µM) | 12.5 (≈ 25.7 µM) | 0.39 (≈ 0.803 µM) | 12.5 (≈ 25.7 µM) | 50 (≈ 103 µM) | 0.2 (≈ 0.412 µM) | > 100 | > 100 | 0.39 (≈ 0.803 µM) | 0.2 (≈ 0.412 µM) | 1.56 (≈ 3.21 µM) | 12.5 (≈ 25.7 µM) | 0.39 (≈ 0.803 µM) | 0.78 (≈ 1.61 µM) | 0.2 (≈ 0.412 µM) | MIC [16]: 100 µg/mL (≈ 206 µM); MIC [17]: > 100 µg/mL
CO/N=C(\C(=O)NC1C(=O)N2C(C(=O)O)=C(SCC3COC(C)(C)O3)CS[C@H]12)c1csc(N)n1 (stereo partly shown) [Compound No. 5, 7-[(Z)-2-(2-aminothiazol-4-yl)-2-methoxyiminoacetamido]-3-(2,2-dimethyl-1,3-dioxolan-4-yl)methylthio-3-cephem-4-carboxylic acid] | 50 (≈ 94.4 µM) | 0.78 (≈ 1.47 µM) | 6.25 (≈ 11.8 µM) | 100 (≈ 189 µM) | 3.13 (≈ 5.91 µM) | 0.39 (≈ 0.736 µM) | 25 (≈ 47.2 µM) | 1.56 (≈ 2.95 µM) | 1.56 (≈ 2.95 µM) | 100 (≈ 189 µM) | 1.56 (≈ 2.95 µM) | 50 (≈ 94.4 µM) | > 100 | 1.56 (≈ 2.95 µM) | 1.56 (≈ 2.95 µM) | 1.56 (≈ 2.95 µM) | 12.5 (≈ 23.6 µM) | 3.13 (≈ 5.91 µM) | 1.56 (≈ 2.95 µM) | 0.78 (≈ 1.47 µM) | MIC [16]: 50 µg/mL (≈ 94.4 µM); MIC [17]: > 100 µg/mL
CO/N=C(\C(=O)NC1C(=O)N2C(C(=O)O)=C(SC3CCOCC3)CS[C@H]12)c1csc(N)n1 (stereo partly shown) [Compound No. 7, 7-[(Z)-2-(2-aminothiazol-4-yl)-2-methoxyiminoacetamido]-3-(tetrahydropyran-4-yl)thio-3-cephem-4-carboxylic acid] | 50 (≈ 100 µM) | 0.78 (≈ 1.56 µM) | 6.25 (≈ 12.5 µM) | 50 (≈ 100 µM) | 0.78 (≈ 1.56 µM) | 0.2 (≈ 0.4 µM) | 6.25 (≈ 12.5 µM) | 0.78 (≈ 1.56 µM) | 0.78 (≈ 1.56 µM) | 50 (≈ 100 µM) | 0.39 (≈ 0.781 µM) | > 100 | > 100 | 0.39 (≈ 0.781 µM) | 0.78 (≈ 1.56 µM) | 0.78 (≈ 1.56 µM) | 12.5 (≈ 25 µM) | 0.78 (≈ 1.56 µM) | 1.56 (≈ 3.12 µM) | 0.2 (≈ 0.4 µM) | MIC [16]: 100 µg/mL (≈ 200 µM); MIC [17]: > 100 µg/mL
CO/N=C(\C(=O)NC1C(=O)N2C(C(=O)O)=C(SCC3CCOC(C)(C)O3)CS[C@H]12)c1csc(N)n1 (stereo partly shown) [Compound No. 9, 7-[(Z)-2-(2-aminothiazol-4-yl)-2-methoxyiminoacetamido]-3-(2,2-dimethyl-1,3-dioxan-4-yl)methylthio-3-cephem-4-carboxylic acid] | 50 (≈ 92 µM) | 1.56 (≈ 2.87 µM) | 6.25 (≈ 11.5 µM) | 100 (≈ 184 µM) | 3.13 (≈ 5.76 µM) | 0.78 (≈ 1.43 µM) | 25 (≈ 46 µM) | 3.13 (≈ 5.76 µM) | 3.13 (≈ 5.76 µM) | 100 (≈ 184 µM) | 3.13 (≈ 5.76 µM) | 100 (≈ 184 µM) | > 100 | 1.56 (≈ 2.87 µM) | 1.56 (≈ 2.87 µM) | 3.13 (≈ 5.76 µM) | 12.5 (≈ 23 µM) | 6.25 (≈ 11.5 µM) | 1.56 (≈ 2.87 µM) | 1.56 (≈ 2.87 µM) | MIC [16]: 50 µg/mL (≈ 92 µM); MIC [17]: > 100 µg/mL
Nc1nc(/C(=N/O)C(=O)NC2C(=O)N3C(C(=O)O)=C(SCC4CCCO4)CS[C@H]23)cs1 (stereo partly shown) [Compound No. 11, 7-[(Z)-2-(2-aminothiazol-4-yl)-2-hydroxyiminoacetamido]-3-tetrahydrofurfurylthio-3-cephem-4-carboxylic acid] | 50 (≈ 103 µM) | 0.78 (≈ 1.61 µM) | 6.25 (≈ 12.9 µM) | 50 (≈ 103 µM) | 1.56 (≈ 3.21 µM) | 0.78 (≈ 1.61 µM) | 6.25 (≈ 12.9 µM) | 1.56 (≈ 3.21 µM) | 1.56 (≈ 3.21 µM) | 50 (≈ 103 µM) | 0.78 (≈ 1.61 µM) | 6.25 (≈ 12.9 µM) | > 100 | 0.2 (≈ 0.412 µM) | 0.2 (≈ 0.412 µM) | 6.75 (≈ 13.9 µM) | 12.5 (≈ 25.7 µM) | 0.78 (≈ 1.61 µM) | 1.56 (≈ 3.21 µM) | 0.39 (≈ 0.803 µM) | MIC [16]: > 100 µg/mL; MIC [17]: > 100 µg/mL
Nc1nc(/C(=N/O)C(=O)NC2C(=O)N3C(C(=O)O)=C(SC4CCOC4)CS[C@H]23)cs1 (stereo partly shown) [Compound No. 13, 7-[(Z)-2-(2-aminothiazol-4-yl)-2-hydroxyiminoacetamido]-3-(tetrahydrofuran-3-yl)thio-3-cephem-4-carboxylic acid] | 100 (≈ 212 µM) | 0.39 (≈ 0.827 µM) | 3.13 (≈ 6.64 µM) | 12.5 (≈ 26.5 µM) | 6.25 (≈ 13.3 µM) | 1.56 (≈ 3.31 µM) | 3.13 (≈ 6.64 µM) | 0.39 (≈ 0.827 µM) | 3.13 (≈ 6.64 µM) | 50 (≈ 106 µM) | 0.2 (≈ 0.424 µM) | 12.5 (≈ 26.5 µM) | > 100 | 0.2 (≈ 0.424 µM) | 0.2 (≈ 0.424 µM) | 6.25 (≈ 13.3 µM) | 12.5 (≈ 26.5 µM) | 0.39 (≈ 0.827 µM) | 1.56 (≈ 3.31 µM) | 0.2 (≈ 0.424 µM) | MIC [16]: > 100 µg/mL; MIC [17]: > 100 µg/mL
